Reference: patent US20250049798A1, “WEE1 PROTEIN KINASE DEGRADATION AGENT AND USE THEREOF” (HANGZHOU GLUBIO PHARMACEUTICAL CO. LTD., priority 2021, published 2025)
Like-named read-outs stand apart in the source and are kept apart here.

Target: HiBiT tagged Wee1 (Homo sapiens, UniProt P30291)
Experiment: Wee1 protein degradation assay (HiBiT assay)
Assay type: cell-based
[1] = engineered HT-1080 cells, 20 hours
[2] = engineered HT-1080 cells, 20 hours, maximum percentage of Wee1 degradation, read-out: HiBiT Wee1: Dmax
[3] = HT-1080, read-out: HiBiT Wee1: Dmax

HiBiT tagged Wee1, sequence (P30291 whole entry): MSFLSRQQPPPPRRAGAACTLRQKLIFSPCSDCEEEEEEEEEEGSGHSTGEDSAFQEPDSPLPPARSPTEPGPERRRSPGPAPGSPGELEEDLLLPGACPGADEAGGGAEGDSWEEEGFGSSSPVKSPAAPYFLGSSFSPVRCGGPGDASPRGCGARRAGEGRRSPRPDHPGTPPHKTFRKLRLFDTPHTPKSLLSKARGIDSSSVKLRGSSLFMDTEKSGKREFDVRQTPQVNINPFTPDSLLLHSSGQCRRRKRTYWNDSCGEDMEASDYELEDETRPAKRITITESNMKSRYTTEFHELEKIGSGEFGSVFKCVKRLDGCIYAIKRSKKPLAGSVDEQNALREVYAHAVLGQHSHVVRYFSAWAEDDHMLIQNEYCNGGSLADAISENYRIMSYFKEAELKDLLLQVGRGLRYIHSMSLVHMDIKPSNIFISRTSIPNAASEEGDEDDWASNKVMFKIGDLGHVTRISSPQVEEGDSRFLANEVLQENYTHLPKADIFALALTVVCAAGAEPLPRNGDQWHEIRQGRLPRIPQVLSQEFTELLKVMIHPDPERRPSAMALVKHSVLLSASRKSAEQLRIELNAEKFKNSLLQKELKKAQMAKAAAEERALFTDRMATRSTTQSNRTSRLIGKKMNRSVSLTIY

Row | Structure (SMILES) | DC50 [1] | Dmax [2] | Dmax [3] | Dmax (HT-1080, […], maximum percentage of Wee1 degradation, read-out: HiBiT Wee1: Dmax)
1 | C=CCn1c(=O)c2cnc(Nc3ccc(C4CCN(C5CCN(c6cc7c(cc6F)C(=O)N(C6CCC(=O)NC6=O)C7=O)CC5)CC4)cc3)nc2n1-c1cccc(C(C)(C)O)n1 (centres unmarked) [Compound 44] | < 100 nM | 50 to 75% | – | –
2 | C=CCn1c(=O)c2cnc(Nc3ccc(N4CCC(CN5CCN(c6ccc(NC7CCC(=O)NC7=O)cc6F)CC5)CC4)c(C)c3)nc2n1-c1ccc2c(n1)[C@](C)(O)CC2 (some centres unmarked) [Compound 132] | < 100 nM | > 75% | – | –
3 | C=CCn1c(=O)c2cnc(Nc3ccc(N4CCN(CCOc5ccc6c(c5)C(=O)N(C5CCC(=O)NC5=O)C6=O)CC4)cc3)nc2n1-c1cccc(C(C)(C)O)n1 (centres unmarked) [Compound 63] | < 100 nM | 50 to 75% | – | –
4 | C=CCn1c(=O)c2cnc(Nc3ccc(N4CCC(CN5CCN(c6cccc7c(N8CCC(=O)NC8=O)nn(C)c67)CC5)CC4)cc3)nc2n1-c1cccc(C(C)(C)O)n1 [Compound 118] | 100 to 1000 nM | 50 to 75% | – | –
5 | C=CCn1c(=O)c2cnc(Nc3ccc(N4CCC(CN5CCC(c6cccc(NC7CCC(=O)NC7=O)c6)CC5)CC4)cc3)nc2n1-c1cccc(C(C)(C)O)n1 (centres unmarked) [Compound 145] | 100 to 1000 nM | 50 to 75% | – | –
6 | C=CCn1c(=O)c2cnc(Nc3ccc4c(c3)CN(CCCCNc3ccc5c(c3)C(=O)N(C3CCC(=O)NC3=O)C5=O)CC4)nc2n1-c1cccc(C(C)(C)O)n1 (centres unmarked) [Compound 24] | > 1000 nM | – | < 50% | –
7 | O=C1CCC(Nc2ccc(N3CCN(CC4CCN(c5ccc(Nc6ncc7c(=O)n(-c8c(Cl)cccc8Cl)c8nccn8c7n6)cc5)CC4)CC3)c(F)c2)C(=O)N1 (centres unmarked) [Compound 94] | < 100 nM | > 75% | – | –
8 | C=CCn1c(=O)c2cnc(Nc3ccc(N4CCC(N5CC6(CN(c7ccc8c(N9CCC(=O)NC9=O)nn(C)c8c7)C6)C5)C(F)(F)C4)cc3)nc2n1-c1ccc2c(n1)[C@@](O)(CC)CC2 (some centres unmarked) [Compound 178] | < 100 nM | 50 to 75% | – | –
9 | C=CCn1c(=O)c2cnc(Nc3ccc(N4CCC(N5CC6(CN(c7ccc(NC8CCC(=O)NC8=O)cc7F)C6)C5)CC4)cc3)nc2n1-c1ccc2c(n1)[C@@](O)(CC)CC2 (some centres unmarked) [Compound 154] | < 100 nM | > 75% | – | –
10 | C=CCn1c(=O)c2cnc(Nc3ccc(N4CCN(C[C@@H]5CCN(c6ccc7c(c6)C(=O)N(C6CCC(=O)NC6=O)C7=O)C5)CC4)cc3)nc2n1-c1cccc(C(C)(C)O)n1 (some centres unmarked) [Compound 38] | < 100 nM | 50 to 75% | – | –
11 | COc1ccc(C(=O)N2CCC(CN3CCN(Cc4ccc(Nc5ncc6c(=O)n(-c7c(Cl)cccc7Cl)c7nccn7c6n5)cc4)CC3)CC2)cc1N1CCC(=O)NC1=O [Compound 58] | > 1000 nM | < 50% | – | –
12 | Cc1cc(Nc2ncc3c(n2)N(C)CN(c2c(Cl)cccc2Cl)C3=O)ccc1N1CCC(CN2CCN(c3ccc4c(c3)CN(C3CCC(=O)NC3=O)C4=O)CC2)CC1 (centres unmarked) [Compound 34] | > 1000 nM | < 50% | – | –
13 | O=C1CCC(N2C(=O)c3ccc(N4CCC(CCN5CCN(c6ccc(Nc7ncc8c(=O)n(-c9c(Cl)cccc9Cl)c9nccn9c8n7)cc6)CC5)CC4)cc3C2=O)C(=O)N1 (centres unmarked) [Compound 4] | > 1000 nM | < 50% | – | –
14 | C=CCn1c(=O)c2cnc(Nc3ccc(N4CCN(C[C@@H]5CCN(c6ccc(NC7CCC(=O)NC7=O)cc6F)C5)CC4)cc3)nc2n1-c1cccc(C(C)(C)O)n1 (some centres unmarked) [Compound 139] | < 100 nM | > 75% | – | –
15 | C=CCn1c(=O)c2cnc(Nc3ccc(N4CCC(CN5CCN(c6cc7c(cc6F)c(N6CCC(=O)NC6=O)nn7C)CC5)CC4)cc3)nc2n1-c1ccc2c(n1)[C@@](O)(CC)CC2 [Compound 201] | < 100 nM | > 75% | – | –
16 | C=CCn1c(=O)c2cnc(Nc3ccc(N4CCN(CCNc5ccc6c(c5)C(=O)N(C5CCC(=O)NC5=O)C6=O)CC4)cc3)nc2n1-c1cccc(C(C)(C)O)n1 (centres unmarked) [Compound 11] | < 100 nM | 50 to 75% | – | –
17 | C=CCn1c(=O)c2cnc(Nc3ccc(N4CCC(CN5CCC(c6cccc7c6n(C)c(=O)n7C6CCC(=O)NC6=O)CC5)CC4)cc3)nc2n1-c1ccc2c(n1)[C@](O)(CC)CC2 (some centres unmarked) [Compound 53] | > 1000 nM | < 50% | – | –
18 | C=CCn1c(=O)c2cnc(Nc3ccc(N4CCN(CC5CCN(c6ncc(NC7CCC(=O)NC7=O)cc6F)CC5)CC4)nc3)nc2n1-c1ccc2c(n1)[C@@](O)(CC)CC2 (some centres unmarked) [Compound 195] | < 100 nM | > 75% | – | –
19 | C=CCn1c(=O)c2cnc(Nc3ccc(N4CCC(N5CCN(c6ccc7c(c6)C(=O)N(C6CCC(=O)NC6=O)C7=O)CC5)CC4)cc3)nc2n1-c1cccc(C(C)(C)O)n1 (centres unmarked) [Compound 77] | < 100 nM | 50 to 75% | – | –
20 | C=CCn1c(=O)c2cnc(Nc3ccc(N4CCN(CC5CN(c6ccc(NC7CCC(=O)NC7=O)cc6F)C5)CC4)cc3)nc2n1-c1cccc(C(C)(C)O)n1 (centres unmarked) [Compound 122] | < 100 nM | > 75% | – | –
21 | C=CCn1c(=O)c2cnc(Nc3ccc(N4CC(N5CC6(CCN(c7ccc(NC8CCC(=O)NC8=O)cc7F)CC6)C5)C4)cc3)nc2n1-c1ccc2c(n1)[C@@](O)(CC)CC2 (some centres unmarked) [Compound 172] | < 100 nM | 50 to 75% | – | –
22 | C=CCn1c(=O)c2cnc(Nc3ccc(N4CCN(CC5CCN(c6ccc(NC7CCC(=O)NC7=O)cc6F)CC5)CC4)cc3)nc2n1-c1cccc(OC)n1 (centres unmarked) [Compound 205] | < 100 nM | > 75% | – | –

Row | Structure (SMILES) | DC50 [1] | Dmax [2] | Dmax [3] | Dmax (HT-1080, […], maximum percentage of Wee1 degradation, read-out: HiBiT Wee1: Dmax)
23 | C=CCn1c(=O)c2cnc(Nc3ccc(N4CCN(CC5CCN(c6ccc(NC7CCC(=O)NC7=O)cc6F)CC5)CC4)c(C)c3)nc2n1-c1ccc2c(n1)[C@@](O)(CC)CC2 (some centres unmarked) [Compound 128] | < 100 nM | > 75% | – | –
24 | C=CCn1c(=O)c2cnc(Nc3ccc(N4CCN(C5CC6(CCN(c7ccc(NC8CCC(=O)NC8=O)cc7F)CC6)C5)CC4)cc3)nc2n1-c1ccc2c(n1)[C@@](O)(CC)CC2 (some centres unmarked) [Compound 165] | < 100 nM | > 75% | – | –
25 | C=CCn1c(=O)c2cnc(Nc3ccc(C4CCN(CC5CCN(c6ccc(NC7CCC(=O)NC7=O)cc6C(F)(F)F)CC5)CC4)cc3)nc2n1-c1cccc(C(C)(C)O)n1 (centres unmarked) [Compound 107] | < 100 nM | > 75% | – | –
26 | C=CCn1c(=O)c2cnc(Nc3ccc(C4CCN(CC5CCN(c6ccc(N7CCC(=O)NC7=O)cc6)CC5)CC4)cc3)nc2n1-c1cccc(C(C)(C)O)n1 [Compound 146] | > 1000 nM | < 50% | – | –
27 | C=CCn1c(=O)c2cnc(Nc3ccc(C4CCN(CC5CCN(c6ccc(NC7CCC(=O)NC7=O)cn6)CC5)CC4)cc3)nc2n1-c1cccc(C(C)(C)O)n1 (centres unmarked) [Compound 84] | < 100 nM | 50 to 75% | – | –
28 | C=CCn1c(=O)c2cnc(Nc3ccc(N4CCN(CCCc5ccc6c(c5)C(=O)N(C5CCC(=O)NC5=O)C6=O)CC4)cc3)nc2n1-c1cccc(C(C)(C)O)n1 (centres unmarked) [Compound 45] | < 100 nM | > 75% | – | –
29 | Cc1cc(Nc2ncc3c(n2)N(C)CN(c2c(Cl)cccc2Cl)C3=O)ccc1N1CCC(CN2CCC(c3ccc4c(c3)C(=O)N(C3CCC(=O)NC3=O)C4=O)CC2)CC1 (centres unmarked) [Compound 33] | > 1000 nM | – | – | < 50%
30 | C=CCn1c(=O)c2cnc(Nc3ccc(N4CCN(CC5CCN(c6cccc7c(N8CCC(=O)NC8=O)nn(C)c67)CC5)CC4)cc3)nc2n1-c1ccc2c(n1)[C@@](O)(CC)CC2 [Compound 124] | < 100 nM | 50 to 75% | – | –
31 | C=CCn1c(=O)c2cnc(Nc3ccc4c(c3)CN(CCCCCCNc3ccc5c(c3)C(=O)N(C3CCC(=O)NC3=O)C5=O)CC4)nc2n1-c1cccc(C(C)(C)O)n1 (centres unmarked) [Compound 22] | > 1000 nM | – | < 50% | –
32 | C=CCn1c(=O)c2cnc(Nc3ccc(N4CCN(CC5CCN(c6ccc(NC7CCC(=O)NC7=O)cc6Cl)CC5)CC4)cc3)nc2n1-c1cccc(C(C)(C)O)n1 (centres unmarked) [Compound 88] | < 100 nM | > 75% | – | –
33 | O=C1CCC(N2C(=O)c3ccc(N4CC(N5CCC(c6ccc(Nc7ncc8c(=O)n(-c9c(Cl)cccc9Cl)c9nccn9c8n7)cc6)CC5)C4)cc3C2=O)C(=O)N1 (centres unmarked) [Compound 42] | > 1000 nM | 50 to 75% | – | –
34 | C[C@@]1(O)CC/C=C\Cn2c(=O)c3cnc(Nc4ccc(N5CCN(CC6CCN(c7ccc(NC8CCC(=O)NC8=O)cc7F)CC6)CC5)cc4)nc3n2-c2cccc1n2 (single isomer, unassigned) [Compound 142] | < 100 nM | 50 to 75% | – | –
35 | COc1ccc(C(=O)N2CCC(CN3CCC(c4ccc(Nc5ncc6c(=O)n(-c7c(Cl)cccc7Cl)c7nccn7c6n5)cc4)CC3)CC2)cc1N1CCC(=O)NC1=O [Compound 26] | > 1000 nM | < 50% | – | –
36 | C=CCn1c(=O)c2cnc(Nc3ccc(N4CCC(N5CC[C@H](c6ccc(NC7CCC(=O)NC7=O)cc6F)C(F)(F)C5)CC4)cc3)nc2n1-c1ccc2c(n1)[C@@](O)(CC)CC2 (single isomer, unassigned) [Compound 183] | < 100 nM | > 75% | – | –
37 | C=CCn1c(=O)c2cnc(Nc3ccc(N4CCC(CN5CCN(c6ccc7c(c6)C(=O)N(C6CCC(=O)NC6=O)C7=O)CC5)CC4)cc3)nc2n1-c1cccc(C(C)(C)O)n1 (centres unmarked) [Compound 56] | < 100 nM | 50 to 75% | – | –
38 | C=CCn1c(=O)c2cnc(Nc3ccc(N4CCN(CC5CCN(c6cc(OC)c(NC7CCC(=O)NC7=O)cc6F)CC5)CC4)cc3)nc2n1-c1ccc2c(n1)[C@@](O)(CC)CC2 (some centres unmarked) [Compound 177] | < 100 nM | > 75% | – | –
39 | Cc1cc(Nc2ncc3c(n2)N(C)CN(c2c(Cl)cccc2Cl)C3=O)ccc1C1CCN(CC2CCN(c3cccc4c3C(=O)N(C3CCC(=O)NC3=O)C4=O)CC2)CC1 (centres unmarked) [Compound 19] | > 1000 nM | < 50% | – | –
40 | C=CCn1c(=O)c2cnc(Nc3ccc(N4CCC(CN5CCN(c6cccc7c6n(C)c(=O)n7C6CCC(=O)NC6=O)CC5)CC4)cc3)nc2n1-c1cccc(C(C)(C)O)n1 (centres unmarked) [Compound 90] | < 100 nM | > 75% | – | –
41 | C=CCn1c(=O)c2cnc(Nc3ccc(N4CCC(CN5CCN(c6cc7c(cc6F)C(=O)N(C6CCC(=O)NC6=O)C7=O)CC5)CC4)cc3)nc2n1-c1cccc(C(C)(C)O)n1 (centres unmarked) [Compound 57] | < 100 nM | 50 to 75% | – | –
42 | C=CCn1c(=O)c2cnc(Nc3ccc(N4CCN(C5CCN(c6ccc7c(c6)C(=O)N(C6CCC(=O)NC6=O)C7=O)CC5)CC4)cc3)nc2n1-c1cccc(C(C)(C)O)n1 (centres unmarked) [Compound 40] | < 100 nM | 50 to 75% | – | –
43 | C=CCn1c(=O)c2cnc(Nc3ccc(N4CCN(CCC5CCN(C(=O)c6ccc(OC)c(N7CCC(=O)NC7=O)c6)CC5)CC4)cc3)nc2n1-c1cccc(C(C)(C)O)n1 [Compound 29] | > 1000 nM | < 50% | – | –
